How the values were obtained:
Carboplatin = compound: C1CC(C1)(C(=O)[O-])C(=O)[O-].N.N.[Pt+2] [Carboplatin]; conditions: max 10 µM
Outline: (§1)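 Plates with 1536 wells received cancer cell lines in 7.5 μl of DMEM/F12 or RPMI containing 10% FBS. After 24 hours at 37°C and 5% CO2, cells were dosed for 72 hours with final DMSO typically 0.2%, and viability was read by CellTiter-Glo 2.0 luminescence scaled between blank-well and DMSO-well means. The single-agent IC50 was taken from a logistic fit of the dose responses made with a non-linear mixed effects model, that logistic curve having two parameters.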

AZD5363 = compound: C1CN(CCC1(C(=O)N[C@@H](CCO)C2=CC=C(C=C2)Cl)N)C3=NC=NC4=C3C=CN4 [AZD5363]; conditions: max 10 µM
Outline: as §1

AZD1775 = compound: C=CCn1c(=O)c2cnc(Nc3ccc(N4CCN(C)CC4)cc3)nc2n1-c1cccc(C(C)(C)O)n1 [AZD1775]; conditions: max 3 µM
Outline: as §1

Trametinib = compound: CC(=O)Nc1cccc(-n2c(=O)n(C3CC3)c(=O)c3c(Nc4ccc(I)cc4F)n(C)c(=O)c(C)c32)c1 [Trametinib]; conditions: max 1 µM
Outline: as §1

Paclitaxel = compound: CC(=O)O[C@H]1C(=O)[C@@]2(C)[C@H]([C@H](OC(=O)c3ccccc3)[C@]3(O)C[C@H](OC(=O)[C@H](O)[C@@H](NC(=O)c4ccccc4)c4ccccc4)C(C)=C1C3(C)C)[C@]1(OC(C)=O)CO[C@@H]1C[C@@H]2O [Paclitaxel]; conditions: max 3 µM
Outline: as §1

Palbociclib = compound: CC(=O)c1c(C)c2cnc(Nc3ccc(N4CCNCC4)cn3)nc2n(C2CCCC2)c1=O [Palbociclib]; conditions: max 10 µM
Outline: as §1

AZD1390 = compound: CC(C)n1c(=O)n(C)c2cnc3cc(F)c(-c4ccc(OCCCN5CCCCC5)nc4)cc3c21 [AZD1390]; conditions: max 0.3 µM
Outline: as §1

Venetoclax = compound: CC1(C)CCC(CN2CCN(c3ccc(C(=O)NS(=O)(=O)c4ccc(NCC5CCOCC5)c([N+](=O)[O-])c4)c(Oc4cnc5[nH]ccc5c4)c3)CC2)=C(c2ccc(Cl)cc2)C1 [Venetoclax]; conditions: max 1 µM
Outline: as §1

Dasatinib = compound: CC1=C(C(=CC=C1)Cl)NC(=O)C2=CN=C(S2)NC3=CC(=NC(=N3)C)N4CCN(CC4)CCO [Dasatinib]; conditions: max 2 µM
Outline: as §1

SG3199 = compound: CC1=CN2[C@@H](C1)C=NC3=CC(=C(C=C3C2=O)OC)OCCCCCOC4=C(C=C5C(=C4)N=C[C@@H]6CC(=CN6C5=O)C)OC [SG3199]; conditions: max 0.001 µM
Outline: as §1

AZD2811 = compound: CCN(CCO)CCCOc1ccc2c(Nc3cc(CC(=O)Nc4cccc(F)c4)[nH]n3)ncnc2c1 [AZD2811]; conditions: max 1 µM
Outline: as §1

SN-38 = compound: CCc1c2c(nc3ccc(O)cc13)-c1cc3c(c(=O)n1C2)COC(=O)[C@]3(O)CC [SN-38]; conditions: max 0.3 µM
Outline: as §1

AZD0156 = compound: CN(C)CCCOc1ccc(-c2ccc3ncc4c(c3c2)n(C2CCOCC2)c(=O)n4C)cn1 [AZD0156]; conditions: max 3 µM
Outline: as §1

AZD4320 = compound: CN(CC[C@H](CSC1=CC=CC=C1)NC2=C(C=C(C=C2)S(=O)(=O)NC(=O)C3=CC=C(C=C3)N4CCC(CC4)[C@H](C5=CC=CC=C5C6=CC=C(C=C6)Cl)O)S(=O)(=O)C(F)(F)F)CCO [AZD4320]; conditions: max 1 µM
Outline: as §1

Alisertib = compound: COc1cc(Nc2ncc3c(n2)-c2ccc(Cl)cc2C(c2c(F)cccc2OC)=NC3)ccc1C(=O)O [Alisertib]; conditions: max 10 µM
Outline: as §1

Etoposide = compound: COc1cc([C@@H]2c3cc4c(cc3[C@@H](O[C@@H]3O[C@@H]5CO[C@@H](C)O[C@H]5[C@H](O)[C@H]3O)[C@H]3COC(=O)[C@H]23)OCO4)cc(OC)c1O [Etoposide]; conditions: max 10 µM
Outline: as §1

Gefitinib = compound: COc1cc2ncnc(Nc3ccc(F)c(Cl)c3)c2cc1OCCCN1CCOCC1 [Gefitinib]; conditions: max 10 µM
Outline: as §1

Prexasertib = compound: COc1cccc(OCCCN)c1-c1cc(Nc2cnc(C#N)cn2)n[nH]1 [Prexasertib]; conditions: max 1 µM
Outline: as §1

Doxorubicin = compound: COc1cccc2c1C(=O)c1c(O)c3c(c(O)c1C2=O)C[C@@](O)(C(=O)CO)C[C@@H]3O[C@H]1C[C@H](N)[C@H](O)[C@H](C)O1 [Doxorubicin]; conditions: max 1 µM
Outline: as §1

AZD5153 = compound: COc1nnc2ccc(N3CCC(c4ccc(OCCN5CCN(C)C(=O)[C@H]5C)cc4)CC3)nn12 [AZD5153]; conditions: max 1 µM
Outline: as §1

Lapatinib = compound: CS(=O)(=O)CCNCc1ccc(-c2ccc3ncnc(Nc4ccc(OCc5cccc(F)c5)c(Cl)c4)c3c2)o1 [Lapatinib]; conditions: max 10 µM
Outline: as §1

AZD8186 = compound: C[C@@H](Nc1cc(F)cc(F)c1)c1cc(C(=O)N(C)C)cc2c(=O)cc(N3CCOCC3)oc12 [AZD8186]; conditions: max 10 µM
Outline: as §1

Crizotinib = compound: C[C@@H](Oc1cc(-c2cnn(C3CCNCC3)c2)cnc1N)c1c(Cl)ccc(F)c1Cl [Crizotinib]; conditions: max 10 µM
Outline: as §1

Savolitinib = compound: C[C@@H](c1ccc2nccn2c1)n1nnc2ncc(-c3cnn(C)c3)nc21 [Savolitinib]; conditions: max 1 µM
Outline: as §1

AZD6738 = compound: C[C@@H]1COCCN1C2=NC(=NC(=C2)C3(CC3)[S@](=N)(=O)C)C4=C5C=CNC5=NC=C4 [AZD6738]; conditions: max 10 µM
Outline: as §1

AZD5991 = compound: Cc1c2c(nn1C)CSCc1cc(n(C)n1)CSc1cc(c3ccccc3c1)OCCCc1c(C(=O)O)n(C)c3c-2c(Cl)ccc13 [AZD5991]; conditions: max 1 µM
Outline: as §1

AZD7648 = compound: Cc1cc2ncnn2cc1Nc1ncc2c(n1)n(C1CCOCC1)c(=O)n2C [AZD7648]; conditions: max 10 µM
Outline: as §1

Taselisib = compound: Cc1nc(-c2cn3c(n2)-c2ccc(-c4cnn(C(C)(C)C(N)=O)c4)cc2OCC3)n(C(C)C)n1 [Taselisib]; conditions: max 10 µM
Outline: as §1

Selumetinib = compound: Cn1cnc2c(F)c(Nc3ccc(Br)cc3Cl)c(C(=O)NOCCO)cc21 [Selumetinib]; conditions: max 10 µM
Outline: as §1

SRA737 = compound: N#Cc1cnc(Nc2cc(NC[C@H]3CNCCO3)c(C(F)(F)F)cn2)cn1 [SRA737]; conditions: max 10 µM
Outline: as §1

MK-2206 = compound: NC1(c2ccc(-c3nc4ccn5c(=O)[nH]nc5c4cc3-c3ccccc3)cc2)CCC1 [MK-2206]; conditions: max 10 µM
Outline: as §1

Gemcitabine = compound: Nc1ccn([C@@H]2O[C@H](CO)[C@@H](O)C2(F)F)c(=O)n1 [Gemcitabine]; conditions: max 0.3 µM
Outline: as §1

[1] = compound: O=C(Nc1ccc2[nH]nc(-c3ccncc3)c2c1)[C@@H]1CCN(CC(=O)N2CCN(c3ccc(-c4ncccn4)cc3)CC2)C1; conditions: max 5 µM
Outline: as §1

Olaparib = compound: O=C(c1cc(Cc2n[nH]c(=O)c3ccccc23)ccc1F)N1CCN(C(=O)C2CC2)CC1 [Olaparib]; conditions: max 10 µM
Outline: as §1

5-Fluorouracil = compound: O=c1[nH]cc(F)c(=O)[nH]1 [5-Fluorouracil]; conditions: max 20 µM
Outline: as §1

Cell Line | IC50, cell viability 72 h (Carboplatin) [nM] | IC50, cell viability 72 h (AZD5363) [nM] | IC50, cell viability 72 h (AZD1775) [nM] | IC50, cell viability 72 h (Trametinib) [nM] | IC50, cell viability 72 h (Paclitaxel) [nM] | IC50, cell viability 72 h (Palbociclib) [nM] | IC50, cell viability 72 h (AZD1390) [nM] | IC50, cell viability 72 h (Venetoclax) [nM] | IC50, cell viability 72 h (Dasatinib) [nM] | IC50, cell viability 72 h (SG3199) [nM] | IC50, cell viability 72 h (AZD2811) [nM] | IC50, cell viability 72 h (SN-38) [nM] | IC50, cell viability 72 h (AZD0156) [nM] | IC50, cell viability 72 h (AZD4320) [nM] | IC50, cell viability 72 h (Alisertib) [nM] | IC50, cell viability 72 h (Etoposide) [nM] | IC50, cell viability 72 h (Gefitinib) [nM] | IC50, cell viability 72 h (Prexasertib) [nM] | IC50, cell viability 72 h (Doxorubicin) [nM] | IC50, cell viability 72 h (AZD5153) [nM] | IC50, cell viability 72 h (Lapatinib) [nM] | IC50, cell viability 72 h (AZD8186) [nM] | IC50, cell viability 72 h (Crizotinib) [nM] | IC50, cell viability 72 h (Savolitinib) [nM] | IC50, cell viability 72 h (AZD6738) [nM] | IC50, cell viability 72 h (AZD5991) [nM] | IC50, cell viability 72 h (AZD7648) [nM] | IC50, cell viability 72 h (Taselisib) [nM] | IC50, cell viability 72 h (Selumetinib) [nM] | IC50, cell viability 72 h (SRA737) [nM] | IC50, cell viability 72 h (MK-2206) [nM] | IC50, cell viability 72 h (Gemcitabine) [nM] | IC50, cell viability 72 h [1] [nM] | IC50, cell viability 72 h (Olaparib) [nM] | IC50, cell viability 72 h (5-Fluorouracil) [nM]
COLO-680N (Esophageal Squamous Cell Carcinoma) | > 10000 | > 10000 | > 3000 | > 1000 | 1300 | > 10000 | > 300 | > 1000 | > 2000 | > 1 | > 1000 | > 300 | > 3000 | > 1000 | > 10000 | > 10000 | > 10000 | > 1000 | > 1000 | > 1000 | > 10000 | > 10000 | > 10000 | > 1000 | > 10000 | > 1000 | > 10000 | > 10000 | > 10000 | > 10000 | > 10000 | > 300 | > 5000 | > 10000 | > 20000
OVMIU (Ovarian Carcinoma) | > 10000 | > 10000 | 1720 | 70 | 77.7 | > 10000 | > 300 | > 1000 | 209 | > 1 | > 1000 | > 300 | > 3000 | > 1000 | 7010 | > 10000 | 3200 | 267 | 801 | 302 | 3240 | > 10000 | > 10000 | > 1000 | > 10000 | > 1000 | > 10000 | 148 | > 10000 | > 10000 | > 10000 | > 300 | 3190 | > 10000 | > 20000

From the supplement of paper PMC11061612
